Laboratory results published in patent US20150157597A1, “NEURODEGENERATIVE DISEASE TREATMENT USING JAK/STAT INHIBITION” (Uinversity of South Florida, priority 2007, published 2015).
Entries after “also recorded” stand apart in the source; their conditions may differ.

How the values were obtained:
[1] = system: primary cultured neuronal cells; assay: LDH release assay, primary cultured neurons challenged with gp120/Tat and IFN-γ; type: cell-based, mouse; conditions: for Neuronal injury, LDH release: JAK inhibitor 50 nM, IFN-γ 100 U/ml with gp120 or Tat 250 ng/ml; for Neuronal injury, LDH release / LDH release: 12 h
Experimental: (§1) Primary cultures of mouse cortical neurons were prepared as described previously (Chin et al., 1997). Briefly, neuronal cells were isolated from newborn C57BL16 mice and seeded in 6-well tissue-culture plates at 2×10^5 cells/well for 48 h. […] In addition, to test whether EGCG could inhibit JAK/STAT1 signaling and neuronal damage induced by gp120 or/and Tat in the presence of IFN-γ, EGCG was also employed as the co-treatment. Cell culture supernatants were used for LDH assay while cell lysates were used for Western blot analysis of Bcl-xL and Bax proteins.
(§2) Normal C57BL/6 primary cultured neuronal cells as well as STAT1-deficient primary neuronal cells were isolated and cultured as described previously (Chin et al., 1997). Normal cells were co-treated with either gp120 or Tat (250 ng/ml) with or without IFN-γ (100 U/ml) and/or JAK inhibitor (50 nM). STAT1-deficient cells were treated with HIV-1 gp120 or HIV-1 Tat (250 ng/ml) in the presence or absence of IFN-γ (100 U/ml) for 12 h. At the end of the treatment period, neuronal cells were washed in ice-cold PBS three times and lysed in ice-cold lysis buffer. After incubation for 30 mm on ice, samples were centrifuged at high speed for 15 mm, and supernatants were collected. Total protein content was estimated by using the Bio-Rad protein assay. For phosphorylation of JAK1, membranes were first hybridized with phosphospecific Tyr1022/1023 JAK1 antibody (Cell Signaling Technology, Beverly, Mass.) and then stripped and finally analyzed by total JAK1. For STAT1 phosphorylation, membranes were probed with a phospho-Ser727 STAT1 antibody (Cell Signaling Technology), stripped with stripping solution, and then re-probed with an antibody that recognizes total STAT1 (Cell Signaling Technology). Alternatively, membranes with identical samples were probed either with phospho-JAK or STAT1 or with an antibody that recognizes total JAK or STAT1. Immunoblotting was performed with a primary antibody, followed by an anti-rabbit HRP-conjugated IgG secondary antibody as a tracer. After being washed in TBS, the membranes were incubated in the luminol reagent and exposed to film.
LOU release assay (Promega, Madison, Wis.) was performed as previously described (Tan et al., 2002). Briefly, after treatment at a variety of conditions, cell cultured media were collected for LOU release assay. Total LDH release was represent maximal lysis of target cells with 5% Triton X-100. Data are presented as mean±SD of LOU release.

[2] = system: primary cultured neuronal cells; assay: Western blot band density ratio of Bcl-xL to Bax in primary neuron lysates; type: cell-based, mouse; conditions: 12 h; for Neuronal injury, Western blot band density ratio of Bcl-xL to Bax: JAK inhibitor 50 nM, IFN-γ 100 U/ml with gp120 or Tat 250 ng/ml
Experimental: as §1, §2
Western blot was performed as described previously (Tan et al., 2002). Briefly, for the in vivo studies left hemispheres of mouse brains were lysed in ice-cold lysis buffer and an aliquot corresponding to 50 μg of total protein was electrophoretically separated using 16.5% Tris-tricine gels. Electrophoresed proteins were then transferred to PVDF membranes (BioRad), washed in dH2O, and blocked for 1 h at ambient temperature in Tris-buffered saline containing 5% (w/v) nonfat dry milk. […] Densitometric analysis was done using the Fluor-S MultiImager™ with Quantity One™ software (Bio-Rad). […]

[3] = system: STAT1; assay: STAT1 phosphorylation by Western blot in primary cultured neurons; type: cell-based, mouse
Experimental: as §2, with “Alternatively, membranes with identical samples were probed either with phospho-JAK or STAT1 or with an antibody that recognizes total JAK or STAT1. Immunoblotting was performed with a primary antibody, followed by an anti-rabbit HRP-conjugated IgG secondary antibody as a tracer. After being washed in TBS, the membranes were incubated in the luminol reagent and exposed to film.” left out
(§3) Western blot was performed as described previously (Tan et al., 2002). […] Densitometric analysis was done using the Fluor-S MultiImager™ with Quantity One™ software (Bio-Rad). […]

[4] = system: C57BL/6 mice; assay: In vivo neurotoxicity, Bcl-xL/Bax Western blot of brain homogenates; set-up: species or system mouse; conditions: 24 h
Text: (§4) Animals were anesthetized using isoflurane (chamber induction at 4-5% isoflurane, intubation and maintenance at 1-2%). After reflexes were checked to ensure that mice were unconscious, they were positioned on a stereotaxic frame (Stoelting Lab Standard) with ear-bars positioned and jaws fixed to a biting plate. The axis coordinates were taken from a mouse brain atlas, and a 5-mm sterile plastic guide cannula (21 GA; Plastic One, Inc., Roanoke, Va.) was implanted into the left lateral ventricle delimited from the stereotaxic coordinates (coordinates relative to bregma: −0.6 mm anterior/posterior, +1.2 mm medial/lateral, and −3.0 mm dorsal/ventral) using the stereotaxic device (Stoelting Lab Standard) and an attached probe (cannula) holder. IFN-γ (200 U/mouse) with HIV-1 protein gp120 (500 ng/mouse) or Tat (500 ng/mouse) or PBS (10 μl) was administered at the rate of 1 μl/min using a Hamilton syringe (modified with a solder stop to prevent over insertion of the needle) through the implanted cannula. Correctness of the injection was confirmed by trypan blue dye administration and histological examination. The wounds were closed with 1-2 staples and mice were all observed until anesthesia had cleared. […]
as §3

[5] = system: C57BL/6 mice; assay: In vivo neurotoxicity, NeuN staining of cortical brain sections after i.c.v. injection; set-up: species or system mouse; conditions: 24 h
Text: as §4, with “cannula.” for “cannula. Correctness of the injection was confirmed by trypan blue dye administration and histological examination. The wounds were closed with 1-2 staples and mice were all observed until anesthesia had cleared.”
At sacrifice, mice were anesthetized with isofluorane and transcardially perfused with ice-cold physiological saline containing heparin (10 U/ml). […] After another cycle of washing, floating sections were mounted onto slides, dehydrated and coverslipped with Vectashield fluorescence mounting media (Vector Labs., Burlingame, Calif.). […]

[6] = system: JAK1; assay: JAK1 phosphorylation by Western blot in primary cultured neurons; type: cell-based, mouse
Experimental: as §2, with “Alternatively, membranes with identical samples were probed either with phospho-JAK or STAT1 or with an antibody that recognizes total JAK or STAT1. Immunoblotting was performed with a primary antibody, followed by an anti-rabbit HRP-conjugated IgG secondary antibody as a tracer. After being washed in TBS, the membranes were incubated in the luminol reagent and exposed to film.” left out
as §3

[7] = EGCG 20 μM, gp120 or Tat 500 ng/ml with IFN-γ 100 U/ml
[8] = EGCG at a range of doses co-incubated with IFN-γ 100 U/ml, 60 min
[9] = EGCG 50 mg/kg i.p., i.c.v. IFN-γ/gp120 or IFN-γ/gp120/Tat
[10] = IFN-γ 100 U/ml added to gp120 or Tat 250 ng/ml
[11] = IFN-γ 100 U/ml, time-dependently

## CC(C)(C)c1nc2c3ccc(F)cc3c3c(=O)[nH]ccc3c2[nH]1 [JAK inhibitor, 2-(1,1-Dimethylethyl)-9-fluoro-3,6-dihydro-7H-benz[h] -imidaz[4,5-f] isoquinolin-7-one]
[1]; JAK1 inhibitor, combination of gp120 and Tat included in the treatment
  Cell death and apoptosis indicators (LDH, Bcl-xL/Bax) versus control treatment group: did not return to baseline levels
[1]
  Neuronal injury, LDH release: significantly inhibited
[1]; listed as JAK1 inhibitor
  Neuronal injury, LDH release: greatly reduced
[2]
  Neuronal injury, Western blot band density ratio of Bcl-xL to Bax: significantly inhibited
[2]; listed as JAK1 inhibitor
  Neuronal injury, Western blot band density ratio of Bcl-xL to Bax: greatly reduced

## (-)-epigallocatechin-3-gallate [EGCG]
[1]; [7]
  LDH release: decreased
[3]; [8]
  STAT1 phosphorylation: dose-dependent inhibition
[4]; [9]
  Ratio of Bcl-xL to Bax in brain homogenates: significant increases
[5]; [9]
  Neuronal damage in cortical regions (NeuN): marked reduction; also recorded: protective
[2]; [7]
  Ratio of Bcl-xL to Bax: increased
[6]; [8]
  JAK1 phosphorylation: dose-dependent inhibition

## IFN-γ: murine recombinant IFN-γ; R&D Systems; type II interferon, soluble cytokine
[1]; [10]
  LDH release: significantly increased
[3]; [11]
  Phosphorylation of STAT1: stimulates phosphorylation
[4]; i.c.v. IFN-γ 200 U/mouse with gp120 or Tat 500 ng/mouse
  Ratio of Bcl-xL to Bax in brain homogenates: significant reduction
[5]; i.c.v. IFN-γ 200 U/mouse plus gp120 500 ng/mouse vs controls, IFN alone or gp120 alone
  Neuronal damage in cortical brain regions (NeuN): marked increase
[2]; [10]
  Band density ratio of Bcl-xL to Bax: reduced
[6]; [11]
  Phosphorylation of JAK1: stimulates phosphorylation
